SMILES strings stand for the structures. The source made the active and inactive calls.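 Rule for the calls: active = compounds giving half or more protection of infected cells from virus-caused growth loss, again on retest; inactive = the rest.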 Where a SMILES comes first, the peptide text is derived from it.

The test relates to CEM cells HIV-1 protection, formazan growth assay. Put plainly: NCI AIDS Antiviral Assay. The conditions noted are these: for IC50: measured here: growth of uninfected CEM cells. An outline of the steps: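 Screen of anti-HIV-1 activity in human CEM cells using a formazan-based growth measurement at five drug concentrations. Hits with 50% or greater protection were repeated, and confirmation required reproducible complete protection.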

As a reminder, the EC50 is the concentration that produces a half-maximal response. For orientation: IC50 means the concentration that inhibits the measured activity by half. Consider `NC(N)=N/N=C\c1ccc(C2CCNCC2)cc1`, for which the EC50 is over 200 µM and the concentration for half-maximal inhibition (IC50) is over 200 µM. Turning to `Cc1ccc2[nH]c3c(c2c1)C1CCC(C(C)(C)C)CC1C1C(=O)N(c2ccc(Oc4ccccc4)cc2)C(=O)C31` (centres undefined), the EC50 is over 200 µM and the half-maximal inhibitory concentration (IC50) stood at 10.5 µM. As for `CC(CNC(=O)CCC(N)C(=O)O)C(=O)O` (centres undefined), the result was inactive. As to `Cn1cnc([N+](=O)[O-])c1Sc1ncn[nH]1`, the EC50 was over 1100 µM and the IC50 came to 17.8 µM. On to `Nc1nc(N)c(-c2cccc(C(F)(F)F)c2)c(Cc2cccc(C(F)(F)F)c2)n1`, for which the EC50 is over 20 µM and the IC50 stood at 0.759 µM. As for `CC(=O)NC(CCCCN)C(=O)NCc1ccccc1` (centres undefined), the EC50 is over 912 µM and the IC50 is over 912 µM. Take `COc1ccc(/C=C/C(=N\NC(=O)c2ccccc2)c2sc(Nc3ccc([N+](=O)[O-])cc3)nc2C)cc1OC`: the EC50 was over 13.2 µM and the IC50 was over 13.2 µM. In the case of `CCOC1CC(C)N(C(=O)c2ccccc2)O1` (centres undefined), the EC50 is over 200 µM and the IC50 was over 200 µM.

In the case of `OC1=C2CCCCCC2=[N+]2CCCCC2C1` (centres undefined), the EC50 was over 200 µM and the IC50 is over 200 µM.

As to `CCOC(=O)/C(=C\c1cccc(F)c1)P(=O)(OCC)OCC`, the EC50 was over 57.5 µM and the IC50 was 10.2 µM. With `COC(=O)N[C@H](C(=O)NC(OCc1ccccc1)C1COC(C)(C)O1)C(C)O[Si](C)(C)C(C)(C)C` (some centres undefined), the EC50 was over 70.8 µM and the IC50 is over 70.8 µM.

On to `O=C(O)CSSCC(=O)O`, for which the EC50 was over 200 µM and the half-maximal inhibitory concentration (IC50) was over 200 µM. On to `CN(C)c1ccc(/C=C(\C#N)c2ccc(Br)cc2)cc1`, for which the EC50 is over 100 µM and the 50% inhibitory concentration (IC50) worked out at 1.35 µM. `CCN(CC)Cc1cc(Nc2c3ccccc3nc3c4ccccc4n(C)c23)cc(CN(CC)CC)c1O`: the EC50 is over 155 µM and the half-maximal inhibitory concentration (IC50) came to 3.09 µM.

In the case of `COC(=O)C(Cc1ccccc1)NP(=O)(O)OCC1OC(n2ccc(N)nc2=O)C(O)C1O` (centres undefined), the EC50 is over 200 µM and the half-inhibitory concentration (IC50) came out at 4.27 µM. On to `NC1=NC(=O)C(CC(=O)Nc2ccc([N+](=O)[O-])cc2[N+](=O)[O-])S1` (centres undefined), for which the EC50 is over 75.9 µM and the half-maximal inhibitory concentration (IC50) was over 75.9 µM. On to `COC1OC(CO)C(O)C2NCSC12` (centres undefined), for which the EC50 was 33.9 µM and the IC50 is over 200 µM. Turning to `Cc1nnc(NS(=O)(=O)c2ccc(N=Nc3cc4ccccc4c(C(=O)O)c3O)cc2)s1`, the EC50 is over 200 µM and the IC50 was 22.9 µM. Consider `NC(=O)c1ncn(C2OC(CO)C(F)C2O)c1N` (centres undefined), for which the EC50 is over 200 µM and the half-maximal inhibitory concentration (IC50) is over 200 µM. As to `NC(=O)c1cccc([C@@H]2O[C@H](CO)[C@@H](O)[C@H]2O)c1`, the EC50 was over 977 µM and the IC50 was 5.37 µM. On to `O=Cc1ccc2c(c1)CC1(C2)Cc2ccc(C=O)cc2C1`, for which the EC50 was over 200 µM and the 50% inhibitory concentration (IC50) came to 4.79 µM. As for `COc1cc(OC)c(C2c3cc4c(cc3OC(N3CCOCC3)C2C)OCO4)c(OC)c1` (centres undefined), the EC50 is over 200 µM and the IC50 worked out at 11.2 µM. For `COc1ccc(NC(=O)C(=O)Cc2nc3ccc([N+](=O)[O-])cc3[nH]c2=O)c(OC)c1`, the EC50 is over 17.4 µM and the IC50 was over 17.4 µM. Take `C=C=C(C)C(C(C)C)N1CCCC1` (centres undefined): the EC50 was over 1230 µM and the IC50 came to 138 µM. Take `BrCC[N+]12CCCN1CCC2`: the result was inactive. On to `COC(=O)Cc1cc(=O)oc2c1C(=O)CCC2`, for which the outcome was inactive. Regarding `CCCCCCN1CCN(Cc2ccc(N(CC)CC)cc2)C(=O)C1=O`, the EC50 was over 200 µM and the IC50 was determined as 0.977 µM. Turning to `Cc1ccc([S@](=O)c2occc2C=O)cc1`, the EC50 was over 20 µM and the IC50 was 1.82 µM. Take `O=c1[nH]c2ccccc2c(O)c1/C=N/C(=S)NCc1ccccc1`: the EC50 was over 200 µM and the IC50 was over 200 µM.

For the molecule `NC(CCC(=O)O)(CCC(=O)O)CCC(=O)O`, the outcome was inactive. For `Cc1cc(CC(O)c2ccc(Cl)c(Cl)c2)nc(=O)[nH]1` (centres undefined), the EC50 was over 9.12 µM and the IC50 was over 9.12 µM.

`COC(=O)c1ccc(CCc2cc(O)c(Br)cc2O)cc1`: the EC50 was over 200 µM and the concentration for half-maximal inhibition (IC50) came out at 10 µM. In the case of `C=C(CCCCOCOCCOC)[Si](C)(C)C`, the EC50 was over 138 µM and the IC50 is over 138 µM. With `COC(=O)c1cc2ccccc2c(CS(=O)(=O)O)c1O`, the EC50 was over 200 µM and the half-maximal inhibitory concentration (IC50) came out at 56.2 µM. `N#CC(C(=O)C(=O)C(C#N)c1ccc(Br)cc1)c1ccc(Br)cc1` (centres undefined): the result was inactive. For `COC(=O)c1cc([O-])c2sc(C)c(C)[n+]2n1`, the EC50 is over 1050 µM and the 50% inhibitory concentration (IC50) is 724 µM. For the molecule `Nc1nc(N)c2ncn(C3OC(CO)CC3F)c2n1` (centres undefined), the EC50 was 34.7 µM and the IC50 was found to be 93.3 µM. For the molecule `COc1cc2c(-c3onc4ccc(OCc5ccccc5)cc34)nccc2c(OC)c1OC`, the outcome was inactive. Consider `CN(CC(O)C(O)CN(C)C(=S)S)C(=S)S` (centres undefined), for which the EC50 is over 661 µM and the concentration for half-maximal inhibition (IC50) was 170 µM.

For the molecule `CC1=CC(=O)/C(=C/n2c(=S)sc3ccccc32)C(=O)O1`, the EC50 was over 200 µM and the half-maximal inhibitory concentration (IC50) is over 200 µM. Take `CC(C)(C)c1cc(C2COC(=O)COCC(=O)OCCOCCOCCO2)cc(C(C)(C)C)c1O` (centres undefined): the EC50 was over 200 µM and the IC50 was determined as 95.5 µM. In the same order, the values of `FC(F)(Oc1ccc2ccccc2c1)c1nc2ccccc2o1` are over 200 µM and 25.7 µM.

For the molecule `COc1ccc(-c2oc3cc(OC(C)=O)cc(OC(C)=O)c3c(=O)c2OC)cc1`, the result was inactive. For `O=C(c1nc2ccccc2[nH]c1=O)C(O)c1ccccc1` (centres undefined), the EC50 was over 468 µM and the IC50 was 151 µM. Take `CCOC(=O)C(=O)Nc1ccccc1C(C)C`: the EC50 was over 151 µM and the half-inhibitory concentration (IC50) was over 151 µM.

As to `CC(=O)Nc1ccc(Sc2nnc(NC(C)=O)s2)cc1`, the EC50 is over 32.4 µM and the IC50 is over 32.4 µM. `CCN(CC)CCN1CCc2c([nH]c3ccccc23)C1c1cccnc1` (centres undefined): the EC50 is over 145 µM and the 50% inhibitory concentration (IC50) is over 145 µM. Turning to `CC1(C)CC(=O)C2=C(C1)NC(SSC1=C(C#N)C(c3ccc(Br)cc3)C3=C(CC(C)(C)CC3=O)N1)=C(C#N)C2c1ccc(Br)cc1` (centres undefined), the EC50 was 36.3 µM and the half-maximal inhibitory concentration (IC50) amounted to 52.5 µM. For the molecule `COc1ccc(C(=O)C(c2ccc(OC)cc2)C2C(=O)Oc3ccccc32)cc1` (centres undefined), the EC50 is over 34.7 µM and the IC50 is over 34.7 µM. Consider `O=c1cc(-c2ccccc2)oc2c(-c3cc(Cl)cc4c(=O)cc(-c5ccccc5)oc34)cc(Cl)cc12`, for which the EC50 was over 200 µM and the IC50 was found to be 38.9 µM. Regarding `N#CC1(Cc2ccc(N)cc2)c2ccccc2C=CN1C(=O)c1ccccc1` (centres undefined), the result was inactive. For `CC(=O)OCC1OC(n2c(-c3ccc(C)cc3)cc(-c3ccccc3)c(C#N)c2=S)C(OC(C)=O)C(OC(C)=O)C1OC(C)=O` (centres undefined), the EC50 is over 200 µM and the IC50 was 67.6 µM.

As to `CC(=O)Nc1ccc(/C=C2/SC(=S)N(/C=C(\c3ccccc3)S(=O)Cc3ccccc3)C2=O)cc1` (centres undefined), the EC50 was over 200 µM and the IC50 worked out at 89.1 µM.

In the case of `Cc1cc(=O)oc2cc3c(cc12)CCCN3`, the EC50 was over 33.9 µM and the IC50 was over 33.9 µM.

For the molecule `CCOC(=S)SSC(=S)OCC`, the EC50 was over 200 µM and the IC50 is 107 µM. `Cc1cn(C2CC(O[Si](C)(C)C(C)(C)C)C(CNC(=O)N(O)C3CC(n4cc(C)c(=O)[nH]c4=O)OC3CO[Si](C)(C)C(C)(C)C)O2)c(=O)[nH]c1=O` (centres undefined): the EC50 is over 200 µM and the 50% inhibitory concentration (IC50) amounted to 2.09 µM. On the same counts, the results for `Cc1nc2c(N)c3nc(C)n(N)c(=O)c3cc2c(=O)n1N` are over 2.14 µM and over 2.14 µM. In the case of `CCC(C)C(NC(=O)C(CCCN=C(N)N)NC(=O)C(CC(=O)O)NC(=O)C(Cc1cnc[nH]1)NC(=O)C(N)CC(C)C)C(=O)NC(C(=O)NC(CC(C)C)C(=O)NCC(=O)NC(CC(=O)O)C(=O)O)C(C)CC` (centres undefined) (H-LHDRIILGD-OH; configuration not given here), the EC50 is over 58.9 µM and the half-inhibitory concentration (IC50) is over 58.9 µM. On to `CC(=O)NNc1nc(C)c(C(=O)/C=C/c2cccc([N+](=O)[O-])c2)s1`, for which the concentration giving a half-maximal response (EC50) was 70.8 µM and the half-inhibitory concentration (IC50) amounted to 75.9 µM. On to `CCCN1C(=O)/C(=C(/O)C(=O)OCC)C(c2ccc(OC)c(OC)c2)C1=O` (centres undefined), for which the result was inactive.

For the molecule `O/N=C(\CC(O)(C(F)(F)F)C(F)(F)F)c1cccc(Cl)c1`, the EC50 is over 200 µM and the IC50 came to 10.7 µM. On to `CC(C)c1cc2c3c(c1O)OC(=O)C[C@@]3(C)C1[C@@H](OC(=O)C1(C)C)C2=O` (some centres undefined), for which the EC50 is over 501 µM and the IC50 is 295 µM.

`CC(C)NS(=O)(=O)c1ncnc2nc[nH]c12`: the result was inactive. As to `CC1=C2[C@@H](c3ccccc3)C3C=CC2(C=C3C(F)(F)F)N(C(=O)NC2CCCCC2)C1=O` (some centres undefined), the EC50 is over 16.2 µM and the IC50 was over 16.2 µM. As for `O=P1(Oc2ccccc2)NCc2ncccc2O1` (centres undefined), the EC50 is over 200 µM and the IC50 was over 200 µM.

Consider `c1ccc2c(c1)[nH]c1cnc3c4cccnc4[nH]c3c12`, for which the EC50 is over 135 µM and the concentration for half-maximal inhibition (IC50) turned out to be 12.6 µM. On the same counts, the results for `COc1ccccc1C1OC2=C(Nc3ccccc3N2)C1=O` (centres undefined) are over 170 µM and over 170 µM. For the molecule `CC(/C=N/N(C)C1=NCCCCN1)=N/N(C)C1=NCCCCN1`, the EC50 is over 200 µM and the IC50 was over 200 µM. Consider `CCOc1ccccc1N1CSc2nnc(-c3ccccc3)n2C1`, for which the EC50 is over 148 µM and the IC50 turned out to be 83.2 µM. On to `N#Cc1cccc(C2C(=O)c3ccc(C(=O)c4ccc5c(c4)C(=O)N(c4ccc(Oc6ccc(N7C(=O)c8ccc(C(=O)c9ccc%10c(c9)C(=O)N(c9cccc(C#N)c9)C%10=O)cc8C7=O)cc6)cc4)C5=O)cc3C2=O)c1` (centres undefined), for which the EC50 was over 3.47 µM and the half-inhibitory concentration (IC50) was over 3.47 µM. Turning to `COC(=O)c1ccccc1CC1Cc2ccc3c(c2C1)CCC3` (centres undefined), the EC50 was over 200 µM and the concentration for half-maximal inhibition (IC50) turned out to be 91.2 µM. Take `O=S1c2ccccc2N=C(c2cccs2)CC1c1ccccc1O` (centres undefined): the EC50 is over 10.7 µM and the half-maximal inhibitory concentration (IC50) is over 10.7 µM.

Source of the values: PubChem BioAssay AID179 (DTP/NCI, 2004).
